Measurements from patent EP4341264B1, “PYRROLOPIRIMIDINE DERIVATIVES AND THEIR USE IN THE TREATMENT OF LEISHMANIASIS” (Drugs for Neglected Diseases Initiative, priority 2021, dated 2022).
Read-outs that look alike come from different tables or passages of the source.

Tests used:
[1] = test system: L. infantum (MHOM/MA/67/ITMAP263); settings: cited from earlier work
MRC-5SV2 cells = settings: printed in SI column; data from IJP: Drugs and Drug Resistance, 2018, 8, 81-86; cited from earlier work
L. infantum = assay: VL hamster model in vivo efficacy (reduction of parasite load vs. control); settings: 40 mg/kg qd, 5 days
Procedure: The in vivo efficacy of the compounds C1, C3, C4, and miltefosine was evaluated in a VL hamster model infected with L. infantum. The in vivo studies were performed in accordance with the methods described by Van den Kerkhof et al. [IJP: Drugs and Drug Resistance, 2018, 8, Issue 1, 81-86]. Following treatment, the reduction of parasite load vs. control was determined in different body compartments (liver, spleen, and bone marrow) with results presented in Table 4. Table 4. Hamster in vivo efficacy

[2] = test system: L. donovani (MHOM/ET/67/L82); settings: cited from earlier work
[3] = test system: L. donovani (MHOM/NP/03/BPK275/0-cl18); assay: Leishmania clinical isolate panel screen (drug-susceptibility assay in infected macrophages); format: cell-based; settings: Macrophage, Visceral leishmaniasis, L. donovani (MHOM/NP/03/BPK275/0-cl18), Miltefosine: mean only, read-out: IC50 Mean ± SEM
Procedure: (§1) Female Swiss mice (BW ~20 g) were purchased from a commercial source (Janvier France) and kept in quarantine for 1 week. The animals were housed in group and drinking water was available ad libitum. To harvest peritoneal macrophages, the mice were first stimulated by intraperitoneal injection of 1 mL of starch solution (2% in PBS). After 24 h, macrophages were collected in RPMI-1640 supplemented with 5% iFCS, 2% penicillin-streptomycin and 1% L-glutamine by peritoneal lavage and immediately distributed in a 96-well plate at a concentration of 30,000 cells/well. The cells were incubated for 24 h at 37°C and 5 % CO2 to allow cell attachment.
(§2) Strains of L. donovani, L. infantum, L. major, L. tropica, L. guyanensis and L. panamensis were selected based on their intrinsic susceptibility to the commonly used reference drugs and their geographic distribution. All strains were cultivated in HOMEM promastigote medium and sub-cultured twice weekly. Passage numbers were kept as low as possible to avoid loss of virulence. For infection of the macrophages, metacyclic promastigote cultures were examined light microscopically for the abundant presence of metacyclic promastigotes. Upon counting, promastigotes were centrifuged and diluted in RPMI-1640 to the desired concentration. The infection ratio varied based on the ability of the strain to adequately infect the host cells and ranged from 5 to 20 promastigotes per macrophage. Macrophages were infected by adding 100 µL promastigote suspension per well onto the macrophages. When ex vivo amastigotes were available (only for two lab strains), macrophages were infected at a ratio of 10/1.
(§3) Stock solutions of the DNDi lead compounds were prepared in 100% DMSO at 20 mM and robotically further diluted in water. Miltefosine (MIL) was included as reference and formulated in water at a concentration of 20 mM. The medium was discarded from the plates to remove any residual non-internalized promastigotes and replaced by fresh RPMI-1640 medium supplemented with iFBS, P/S and L-glutamine (as described above). Next, a 2-fold dilution series of each lead compound was added to the plate with 64 µM as the highest in test-concentration for the DNDi leads and 40 µM for MIL. The 96-well plates were further incubated at 34-37°C and 5% CO2. For staining, the culture medium was discarded, and the plates were left to dry for 2-4 hours. The cells were then fixated with methanol for 10 minutes and stained with a 1/5 Giemsa dilution in water for 15 minutes. The percentage infection-inhibition compared to a positive control (untreated infected macrophages) was microscopically determined and used to calculate the IC50 and IC90 values.

[4] = test system: L. infantum (LEM3323-cl4 MIL); assay: as above; format: cell-based; settings: Macrophage, read-out: IC50 Mean ± SEM
Procedure: as §1, §2, §3

[5] = test system: L. donovani (MHOM/ NP/2003/BPK282/0-cl4); assay: as above; format: cell-based; settings: Macrophage, read-out: IC50 Mean ± SEM
Procedure: as §1, §2, §3

[6] = test system: L. infantum (MHOM/ES/2016/LLM-2346); assay: as above; format: cell-based; settings: Macrophage, Visceral leishmaniasis, L. infantum (MHOM/ES/2016/LLM-2346), Miltefosine: mean only, read-out: IC50 Mean ± SEM
Procedure: as §1, §2, §3

[7] = test system: L. panamensis (MHOM/PA/71/LS94); assay: as above; format: cell-based; settings: Macrophage, Cutaneous leishmaniasis, L. panamensis (MHOM/PA/71/LS94), Miltefosine: mean only, read-out: IC50 Mean ± SEM
Procedure: as §1, §2, §3

[8] = test system: L. guyanensis (MHOM/PE/02/PER 054/0); assay: as above; format: cell-based; settings: Macrophage, Cutaneous leishmaniasis, L. guyanensis (MHOM/PE/02/PER 054/0), Miltefosine: mean only, read-out: IC50 Mean ± SEM
Procedure: as §1, §2, §3

[9] = test system: L. infantum (MHOM/FR/96/LEM3323-cl4); assay: as above; format: cell-based; settings: Macrophage, Visceral leishmaniasis, L. infantum (MHOM/FR/96/LEM3323-cl4), Miltefosine: mean only, read-out: IC50 Mean ± SEM
Procedure: as §1, §2, §3

[10] = test system: L. tropica (MHOM/AF/2015/HTD7); assay: as above; format: cell-based; settings: Macrophage, Cutaneous leishmaniasis, L. tropica (MHOM/AF/2015/HTD7), Miltefosine: mean only, read-out: IC50 Mean ± SEM
Procedure: as §1, §2, §3

[11] = test system: L. major (MHOM/SA/85/JISH118); assay: as above; format: cell-based; settings: Macrophage, Cutaneous leishmaniasis, L. major (MHOM/SA/85/JISH118), Miltefosine: mean only, read-out: IC50 Mean ± SEM
Procedure: as §1, §2, §3

[12] = test system: L. major (MHOM/IL/81/Friedlin); assay: as above; format: cell-based; settings: Macrophage, Cutaneous leishmaniasis, L. major (MHOM/IL/81/Friedlin), Miltefosine: mean only, read-out: IC50 Mean ± SEM
Procedure: as §1, §2, §3

[13] = test system: L. infantum (LEM3323-cl4 PMM); assay: as above; format: cell-based; settings: Macrophage, read-out: IC50 Mean ± SEM
Procedure: as §1, §2, §3

[14] = test system: L. infantum (MHOM/BR/2007/WC (L3015)); assay: as above; format: cell-based; settings: Macrophage, Visceral leishmaniasis, L. infantum (MHOM/BR/2007/WC (L3015)), Miltefosine: mean only, read-out: IC50 Mean ± SEM
Procedure: as §1, §2, §3

CCCCCCCCCCCCCCCCOP(=O)([O-])OCC[N+](C)(C)C [Miltefosine, reference compound]
IC50 ([1]; L. infantum infected macrophages, IJP: Drugs and Drug Resistance, 2018, 8, Issue 1, 81-86): 3.5 ± 0.4 µM | IC50 ([1]; L. infantum, data from IJP: Drugs and Drug Resistance, 2018, 8, 81-86): 3.5 ± 0.4 µM | CC50 (MRC-5SV2 cells): 38.5 µM | % Parasite reduction Bone marrow (L. infantum; bone marrow): 92.1-99.0% | % Parasite reduction Liver (L. infantum; liver): 97.0-98.2% | % Parasite reduction Spleen (L. infantum; spleen): 95.7-99.5% | IC50 ([2]; L. donovani infected macrophages, IJP: Drugs and Drug Resistance, 2018, 8, Issue 1, 81-86): 1.8 ± 0.4 µM | IC50 ([2]; L. donovani, data from IJP: Drugs and Drug Resistance, 2018, 8, 81-86): 1.8 ± 0.4 µM | IC50 [3]: 2.07 µM | IC50 [4]: 2.01 µM | IC50 [5]: 2.01 µM | IC50 [6]: 2.16 µM | IC50 [7]: 1.81 µM | IC50 [8]: 8.06 µM | IC50 [9]: 1.81 µM | IC50 [10]: 2.16 µM | IC50 [11]: 24.1 µM | IC50 [12]: 11.3 µM | IC50 [13]: 20.3 µM | IC50 [14]: 2.69 µM
